Results from US20210198204A1, “PRODRUGS OF KALLIKREIN INHIBITORS” (BioCryst Pharmaceuticals, Inc., priority 2016, published 2021).

assay: Plasma pharmacokinetics of the parent compound after a single oral dose of prodrug; assay type: in vivo; details: single oral dose 10 mg/kg, fasted male Sprague Dawley rats; plasma analyzed for the parent compound; study duration 8 h
Description: Plasma pharmacokinetics of compounds was determined using three male Sprague Dawley rats following a single oral dose administration. All animals were placed in a rat metabolic cage, isolated, and fasted approximately 15 hours prior to dosing. Identifying markers were placed on each animal. Each animal was weighed prior to dose administration. Animals were administered orally with a solution formulation of test compound either in water or a combination of water/propylene glycol, at a dose of 10 mg/kg. Gavage needles were attached to syringes and filled with appropriate amount of test article to be dosed. Blood samples (approximately 500 μL) were collected from three rats at pre-dose (time 0), 0.5, 1, 2, 4, 8, 12 and 24 hr, respectively, depending on study duration. Samples were collected into labeled micro centrifuge tubes containing (heparin solution) as an anticoagulant. Plasma was immediately harvested from the blood by centrifugation at 14,000 rpm for 3 min at 4° C., and stored below −70° C. until bioanalysis. Individual plasma samples were analyzed for the parent compound, 3-[2-(4-carbamimidoyl-phenylcarbamoyl)-5-methoxy-4-vinyl-phenyl]-6-(cyclopropylmethyl-carbamoyl)-pyridine-2-carboxylic acid. As shown in Table-1, the test compounds yielded varying degrees of exposure to the parent compound. The test compounds generally provided for improved bioavailability of the parent compound as compared to dosing of the parent compound in aqueous solutions.

SMILES | AUC0-last hour (area under the curve)
C=Cc1cc(C(=O)Nc2ccc(C(=N)N)cc2)c(-c2ccc(C(=O)NCC3CC3)nc2C(=O)OC[C@H](C)OC(=O)[C@@H](N)C(C)C)cc1OC (single isomer, unassigned) [Compound 18f] | A (A = 0-1,000 ng/mL)
C=Cc1cc(C(=O)Nc2ccc(C(=N)N)cc2)c(-c2ccc(C(=O)NCC3CC3)nc2C(=O)OC[C@@H](C)OC(=O)[C@@H](N)C(C)C)cc1OC (single isomer, unassigned) [Compound 18g] | A (A = 0-1,000 ng/mL)
C=Cc1cc(C(=O)Nc2ccc(C(=N)N)cc2)c(-c2ccc(C(=O)NCC3CC3)nc2C(=O)OC)cc1OC.CS(=O)(=O)O [Compound 1o, Methyl 3-[2-(4-carbamimidoylphenylcarbamoyl)-5-methoxy-4-vinylphenyl]-6-(cyclopropylmethylcarbamoyl)pyridine-2-carboxylate methanesulfonate] | A (A = 0-1,000 ng/mL)
C=Cc1cc(C(=O)Nc2ccc(C(=N)NC(=O)OCCCCCC)cc2)c(-c2ccc(C(=O)NCC3CC3)nc2C(=O)OCCN2CCOCC2)cc1OC.Cl [Compound 6a, 2-morpholinoethyl 6-((cyclopropylmethyl)carbamoyl)-3-(2-((4-(N-((hexyloxy)carbonyl)carbamimidoyl)phenyl)carbamoyl)-5-methoxy-4-vinylphenyl)picolinate hydrochloride] | A (A = 0-1,000 ng/mL)
C=Cc1cc(C(=O)Nc2ccc(C(N)=NO)cc2)c(-c2ccc(C(=O)NCC3CC3)nc2C(=O)O)cc1OC [Compound 9c, 6-((cyclopropylmethyl)carbamoyl)-3-(2-((4-(N′-hydroxycarbamimidoyl)phenyl)carbamoyl)-5-methoxy-4-vinylphenyl)picolinic acid] | A (A = 0-1,000 ng/mL)
C=Cc1cc(C(=O)Nc2ccc(C(=N)N)cc2)c(-c2ccc(C(=O)NCC3CC3)nc2C(=O)OCC(C)OC(=O)[C@@H](N)C(C)C)cc1OC (stereo partly drawn) [Compound 18e, 2-(((S)-2-amino-3-methylbutanoyl)oxy)propyl 3-(2-((4-carbamimidoylphenyl)carbamoyl)-5-methoxy-4-vinylphenyl)-6-((cyclopropylmethyl)carbamoyl)picolinate] | A (A = 0-1,000 ng/mL)

same assay, conditions: single oral dose 10 mg/kg, fasted male Sprague Dawley rats; plasma analyzed for the parent compound; study duration 12 h

SMILES | AUC0-last hour (area under the curve)
C=Cc1cc(C(=O)Nc2ccc(C(=N)N)cc2)c(-c2ccc(C(=O)NCC3CC3)nc2C(=O)OCCN2CCOCC2)cc1OC.Cl [Compound 2d, 2-morpholinoethyl 3-(2-((4-carbamimidoylphenyl)carbamoyl)-5-methoxy-4-vinylphenyl)-6-((cyclopropylmethyl)carbamoyl)picolinate hydrochloride] | A (A = 0-1,000 ng/mL)
C=Cc1cc(C(=O)Nc2ccc(C(=N)N)cc2)c(-c2ccc(C(=O)NCC3CC3)nc2C(=O)OCOC(=O)[C@@H](N)C(C)C)cc1OC.O=C(O)C(F)(F)F [Compound 10e, (S)-((2-amino-3-methylbutanoyl)oxy)methyl 3-(2-((4-carbamimidoylphenyl)carbamoyl)-5-methoxy-4-vinylphenyl)-6-((cyclopropylmethyl)carbamoyl)picolinate trifluoroacetate] | B (B = 1,001-10,000 ng/mL)
C=Cc1cc(C(=O)Nc2ccc(C(=N)N)cc2)c(-c2ccc(C(=O)NCC3CC3)nc2C(=O)OCOC(=O)OC(C)C)cc1OC [Compound 14d, ((isopropoxycarbonyl)oxy)methyl 3-(2-((4-carbamimidoylphenyl)carbamoyl)-5-methoxy-4-vinylphenyl)-6-((cyclopropylmethyl)carbamoyl)picolinate] | A (A = 0-1,000 ng/mL)
C=Cc1cc(C(=O)Nc2ccc(C(=N)N)cc2)c(-c2ccc(C(=O)NCC3CC3)nc2C(=O)OCOC(=O)C(C)(C)C)cc1OC [Compound 15d, (pivaloyloxy)methyl 3-(2-((4-carbamimidoylphenyl)carbamoyl)-5-methoxy-4-vinylphenyl)-6-((cyclopropylmethyl)carbamoyl)picolinate] | A (A = 0-1,000 ng/mL)
